Experimental data from ChEMBL document CHEMBL3352057, “Novel fluorinated pyrrolo[1,2-a]pyrazine-2,6-dione derivatives: synthesis and anticonvulsant evaluation in animal models of epilepsy” (Bioorg Med Chem, 2014).
Active and inactive are the calls of the source. The calls are words filed in the database; no cut-off is given here.

How the values were obtained:
Mus musculus [1] = experiment: Neurotoxicity in albino CF1 mouse at 100 mg/kg, ip measured after 0.5 hr; type: toxicity, organism-based; set-up: dose 100 mg/kg, route intraperitoneal; conditions: in vivo
Mus musculus [2] = experiment: Anticonvulsant activity in albino CF1 mouse assessed as protection against maximal electroshock-induced seizures at 100 mg/kg, ip measured after 0.25 hr; type: functional, organism-based; set-up: dose 100 mg/kg
Mus musculus [3] = experiment: Anticonvulsant activity in albino CF1 mouse assessed as protection against subcutaneous metrazol-induced seizures at 100 mg/kg, ip measured after 1 hr; type: functional, organism-based; set-up: dose 100 mg/kg
Rattus norvegicus [4] = experiment: Neurotoxicity in MES Sprague-Dawley rat model at 30 mg/kg, po measured after 4 hrs; type: toxicity, organism-based; set-up: dose 30 mg/kg, route oral; conditions: in vivo
Mus musculus [5] = experiment: Anticonvulsant activity in albino CF1 mouse assessed as protection against maximal electroshock-induced seizures at 100 mg/kg, ip measured after 4 hrs; type: functional, organism-based; set-up: dose 100 mg/kg
Mus musculus [6] = experiment: Anticonvulsant activity in albino CF1 mouse assessed as protection against 32 mA current-induced seizures at 100 mg/kg, ip measured after 0.5 hr; type: functional, organism-based; set-up: dose 100 mg/kg
Rattus norvegicus [7] = experiment: Neurotoxicity in MES Sprague-Dawley rat model at 30 mg/kg, po measured after 0.5 hr; type: toxicity, organism-based; set-up: dose 30 mg/kg, route oral; conditions: in vivo
Mus musculus [8] = experiment: Neurotoxicity in 32 mA current-induced seizure albino CF1 mouse model at 100 mg/kg, ip measured after 4 hrs; type: toxicity, organism-based; set-up: dose 100 mg/kg, route intraperitoneal; conditions: in vivo
Mus musculus [9] = experiment: Neurotoxicity in albino CF1 mouse at 100 mg/kg, ip measured after 4 hrs; type: toxicity, organism-based; set-up: dose 100 mg/kg, route intraperitoneal; conditions: in vivo
Rattus norvegicus [10] = experiment: Anticonvulsant activity in Sprague-Dawley rat assessed as protection against maximal electroshock-induced seizures at 30 mg/kg, po measured after 4 hrs; type: functional, organism-based; set-up: dose 30 mg/kg
Mus musculus [11] = experiment: Neurotoxicity in 32 mA current-induced seizure albino CF1 mouse model at 100 mg/kg, ip measured after 0.5 hr; type: toxicity, organism-based; set-up: dose 100 mg/kg, route intraperitoneal; conditions: in vivo
Mus musculus [12] = experiment: Anticonvulsant activity in albino CF1 mouse assessed as protection against maximal electroshock-induced seizures at 100 mg/kg, ip measured after 0.5 hr; type: functional, organism-based; set-up: dose 100 mg/kg
Mus musculus [13] = experiment: Anticonvulsant activity in albino CF1 mouse assessed as protection against subcutaneous metrazol-induced seizures at 100 mg/kg, ip measured after 4 hrs; type: functional, organism-based; set-up: dose 100 mg/kg
Mus musculus [14] = experiment: Anticonvulsant activity in albino CF1 mouse assessed as protection against subcutaneous metrazol-induced seizures at 100 mg/kg, ip measured after 0.25 hr; type: functional, organism-based; set-up: dose 100 mg/kg
Rattus norvegicus [15] = experiment: Neurotoxicity in MES Sprague-Dawley rat model at 30 mg/kg, po measured after 1 hr; type: toxicity, organism-based; set-up: dose 30 mg/kg, route oral; conditions: in vivo
Mus musculus [16] = experiment: Anticonvulsant activity in albino CF1 mouse assessed as protection against 32 mA current-induced seizures at 100 mg/kg, ip measured after 2 hrs; type: functional, organism-based; set-up: dose 100 mg/kg
Mus musculus [17] = experiment: Anticonvulsant activity in albino CF1 mouse assessed as protection against maximal electroshock-induced seizures at 100 mg/kg, ip measured after 1 hr; type: functional, organism-based; set-up: dose 100 mg/kg
Mus musculus [18] = experiment: Anticonvulsant activity in albino CF1 mouse assessed as protection against subcutaneous metrazol-induced seizures at 100 mg/kg, ip measured after 0.5 hr; type: functional, organism-based; set-up: dose 100 mg/kg
Mus musculus [19] = experiment: Neurotoxicity in albino CF1 mouse at 100 mg/kg, ip measured after 1 hr; type: toxicity, organism-based; set-up: dose 100 mg/kg, route intraperitoneal; conditions: in vivo
Rattus norvegicus [20] = experiment: Anticonvulsant activity in Sprague-Dawley rat assessed as protection against maximal electroshock-induced seizures at 30 mg/kg, po measured after 1 hr; type: functional, organism-based; set-up: dose 30 mg/kg
Rattus norvegicus [21] = experiment: Anticonvulsant activity in Sprague-Dawley rat assessed as protection against maximal electroshock-induced seizures at 30 mg/kg, po measured after 0.25 hr; type: functional, organism-based; set-up: dose 30 mg/kg
Rattus norvegicus [22] = experiment: Neurotoxicity in MES Sprague-Dawley rat model at 30 mg/kg, po measured after 0.25 hr; type: toxicity, organism-based; set-up: dose 30 mg/kg, route oral; conditions: in vivo
Rattus norvegicus [23] = experiment: Anticonvulsant activity in Sprague-Dawley rat assessed as protection against maximal electroshock-induced seizures at 30 mg/kg, po measured after 0.5 hr; type: functional, organism-based; set-up: dose 30 mg/kg
Mus musculus [24] = experiment: Anticonvulsant activity in albino CF1 mouse assessed as protection against 32 mA current-induced seizures at 100 mg/kg, ip measured after 4 hrs; type: functional, organism-based; set-up: dose 100 mg/kg
Mus musculus [25] = experiment: Neurotoxicity in 32 mA current-induced seizure albino CF1 mouse model at 100 mg/kg, ip measured after 0.25 hr; type: toxicity, organism-based; set-up: dose 100 mg/kg, route intraperitoneal; conditions: in vivo
Mus musculus [26] = experiment: Anticonvulsant activity in albino CF1 mouse assessed as protection against 32 mA current-induced seizures at 100 mg/kg, ip measured after 1 hr; type: functional, organism-based; set-up: dose 100 mg/kg
Mus musculus [27] = experiment: Neurotoxicity in albino CF1 mouse at 100 mg/kg, ip measured after 0.25 hr; type: toxicity, organism-based; set-up: dose 100 mg/kg, route intraperitoneal; conditions: in vivo
Mus musculus [28] = experiment: Anticonvulsant activity in albino CF1 mouse assessed as protection against 32 mA current-induced seizures at 100 mg/kg, ip measured after 0.25 hr; type: functional, organism-based; set-up: dose 100 mg/kg
Mus musculus [29] = experiment: Neurotoxicity in 32 mA current-induced seizure albino CF1 mouse model at 100 mg/kg, ip measured after 2 hrs; type: toxicity, organism-based; set-up: dose 100 mg/kg, route intraperitoneal; conditions: in vivo
Mus musculus [30] = experiment: Neurotoxicity in 32 mA current-induced seizure albino CF1 mouse model at 100 mg/kg, ip measured after 1 hr; type: toxicity, organism-based; set-up: dose 100 mg/kg, route intraperitoneal; conditions: in vivo
Rattus norvegicus [31] = experiment: Neurotoxicity in MES Sprague-Dawley rat model at 30 mg/kg, po measured after 2 hrs; type: toxicity, organism-based; set-up: dose 30 mg/kg, route oral; conditions: in vivo
Rattus norvegicus [32] = experiment: Anticonvulsant activity in Sprague-Dawley rat assessed as protection against maximal electroshock-induced seizures at 30 mg/kg, po measured after 2 hrs; type: functional, organism-based; set-up: dose 30 mg/kg
Rattus norvegicus [33] = experiment: Neurotoxicity in MES Sprague-Dawley rat model at 30 mg/kg, ip measured after 0.25 hr; type: toxicity, organism-based; set-up: dose 30 mg/kg, route intraperitoneal; conditions: in vivo
Rattus norvegicus [34] = experiment: Anticonvulsant activity in Sprague-Dawley rat assessed as protection against maximal electroshock-induced seizures at 30 mg/kg, ip measured after 0.25 hr; type: functional, organism-based; set-up: dose 30 mg/kg
Rattus norvegicus [35] = experiment: Neurotoxicity in MES Sprague-Dawley rat model at 30 mg/kg, ip measured after 2 hrs; type: toxicity, organism-based; set-up: dose 30 mg/kg, route intraperitoneal; conditions: in vivo
Rattus norvegicus [36] = experiment: Anticonvulsant activity in Sprague-Dawley rat assessed as protection against maximal electroshock-induced seizures at 30 mg/kg, ip measured after 0.5 hr; type: functional, organism-based; set-up: dose 30 mg/kg
Rattus norvegicus [37] = experiment: Anticonvulsant activity in Sprague-Dawley rat assessed as protection against maximal electroshock-induced seizures at 30 mg/kg, ip measured after 4 hrs; type: functional, organism-based; set-up: dose 30 mg/kg
Rattus norvegicus [38] = experiment: Neurotoxicity in MES Sprague-Dawley rat model at 30 mg/kg, ip measured after 4 hrs; type: toxicity, organism-based; set-up: dose 30 mg/kg, route intraperitoneal; conditions: in vivo
Rattus norvegicus [39] = experiment: Neurotoxicity in MES Sprague-Dawley rat model at 30 mg/kg, ip measured after 1 hr; type: toxicity, organism-based; set-up: dose 30 mg/kg, route intraperitoneal; conditions: in vivo
Rattus norvegicus [40] = experiment: Anticonvulsant activity in Sprague-Dawley rat assessed as protection against maximal electroshock-induced seizures at 30 mg/kg, ip measured after 2 hrs; type: functional, organism-based; set-up: dose 30 mg/kg
Rattus norvegicus [41] = experiment: Anticonvulsant activity in Sprague-Dawley rat assessed as protection against maximal electroshock-induced seizures at 30 mg/kg, ip measured after 1 hr; type: functional, organism-based; set-up: dose 30 mg/kg
Rattus norvegicus [42] = experiment: Neurotoxicity in MES Sprague-Dawley rat model at 30 mg/kg, ip measured after 0.5 hr; type: toxicity, organism-based; set-up: dose 30 mg/kg, route intraperitoneal; conditions: in vivo

| Compound | Activity (Mus musculus [1]) | Activity (Mus musculus [2]) | Activity (Mus musculus [3]) | Activity (Rattus norvegicus [4]) | Activity (Mus musculus [5]) | Activity (Rattus norvegicus [7]) | Activity (Mus musculus [9]) | Activity (Rattus norvegicus [10]) | Activity (Mus musculus [12]) | Activity (Mus musculus [13]) | Activity (Mus musculus [14]) | Activity (Rattus norvegicus [15]) | Activity (Mus musculus [17]) | Activity (Mus musculus [18]) | Activity (Mus musculus [19]) | Activity (Rattus norvegicus [20]) | Activity (Rattus norvegicus [21]) | Activity (Rattus norvegicus [22]) | Activity (Rattus norvegicus [23]) | Activity (Mus musculus [27]) | other results |
| --- | --- | --- | --- | --- | --- | --- | --- | --- | --- | --- | --- | --- | --- | --- | --- | --- | --- | --- | --- | --- | --- |
| O=C1NC(=O)[C@@H]2CCCN2[C@H]1c1cccc(F)c1 | Non-toxic | Active | inactive | Non-toxic | inactive | Non-toxic | Non-toxic | inactive | Active | inactive | Active | Non-toxic | inactive | Active | Non-toxic | inactive | inactive | Non-toxic | inactive | Non-toxic | Activity (Mus musculus [6]): Active; Activity (Mus musculus [8]): Non-toxic; Activity (Mus musculus [11]): Non-toxic; Activity (Mus musculus [16]): inactive; Activity (Mus musculus [24]): inactive; Activity (Mus musculus [25]): Non-toxic; Activity (Mus musculus [26]): inactive; Activity (Mus musculus [28]): Active; Activity (Mus musculus [29]): Non-toxic; Activity (Mus musculus [30]): Non-toxic; Activity (Rattus norvegicus [31]): Non-toxic; Activity (Rattus norvegicus [32]): inactive |
| O=C1NC(=O)[C@@H]2CCCN2[C@H]1c1ccccc1F | Non-toxic | inactive | inactive | Non-toxic | inactive | Non-toxic | Non-toxic | inactive | Active | inactive | Active | Non-toxic | inactive | inactive | Non-toxic | inactive | inactive | Non-toxic | inactive | Toxic | Activity (Rattus norvegicus [33]): Non-toxic; Activity (Rattus norvegicus [34]): inactive; Activity (Rattus norvegicus [35]): Non-toxic; Activity (Rattus norvegicus [36]): inactive; Activity (Rattus norvegicus [37]): inactive; Activity (Rattus norvegicus [38]): Non-toxic; Activity (Rattus norvegicus [39]): Non-toxic; Activity (Rattus norvegicus [40]): inactive; Activity (Rattus norvegicus [41]): inactive; Activity (Rattus norvegicus [42]): Non-toxic; Activity (Rattus norvegicus [31]): Non-toxic; Activity (Rattus norvegicus [32]): inactive |
